According to patent publication US20210292807A1, “METHOD FOR TESTING ANTIMICROBIAL SUSCEPTIBILITY” (priority 2017, published 2021):
In brackets after ≈: the same amount, converted by molar mass. Read-outs that look alike come from different tables or passages of the source.

Columns and labels:
Staphylococcus aureus [1] = assay: Broth microdilution (BMD) MIC of Staphylococcus aureus isolates; assay type: cell-based
Text: The acoustic flow cytometry assisted method of the present invention was employed essentially as described in the previous working examples to determine susceptibility of Staphylococcus aureus to both cefoxitin and oxacillin. Susceptibility classification into S/NS and quantitative MIC values obtained using the acoustic flow cytometry assisted method were compared to results obtained using the conventional broth microdilution (BMD) method. Results are shown in Table 4 (Panels A and B) below and in FIGS. 9-12.

Staphylococcus aureus [2] = assay: Acoustic flow cytometry-assisted susceptibility test (FAST) of Staphylococcus aureus isolates; assay type: cell-based; parameters: MIC dilution at which susceptibility-associated signature is observed by AFC: unit not given beside the values
Protocol: The material and methods utilized are briefly outlined herein below. The method used was similar to that outlined in the earlier examples albeit adjusted to allow for 3 hour incubation of Staphylococcus aureus to account for longer doubling times of Staphylococcus aureus relative to K. pneumoniae used in the previous examples.
Events were acquired by forward scatter and BL1 (515 nm-545 nm) using the Attune with voltages and thresholding set as follows: Forward Scatter Voltage: 3050; Forward Scatter Threshold: 3×1000 AND; Side Scatter Voltage: 2950; Side Scatter Threshold: IGNORE; BL1 Voltage: 1500; BL1 Threshold: 1×1000 AND.
Nine mL of MHB was aliquoted into twelve, 50 mL Falcon tubes. Each tube was labelled with the required final test concentration of antibiotic. […] Tubes were transferred to a 35° C. incubator to pre-warm.
One 1 mL of the overnight bacterial suspension was transferred into a 1.5 mL microcentrifuge tube and centrifuge at 7,800×g for about 5 minutes. The supernatant was discarded, and the pellet re-suspended in 1 mL of 0.1 μm filtered HBSS. This step was optionally repeat.
About 900 μL of HBSS was dispended into three 1.5 mL tubes—two clear tubes and one amber tube. About 100 μL of the bacterial suspension was inoculated into the first tube (clear) and serially dilute to reach 1:1000 by the third tube (amber). About 1 μl of SYTO 9 (5 μM final concentration) was added to the third tube. The dye was incubated, protected from light, for at least 5 minutes (individual sample types were optionally required with longer incubations) and then the Stained Control on the Attune acoustic flow cytometer instrument was read
The event density (events/μL) from your stained control aliquots was used to calculate the inoculum volume required to produce a 5.5×10^5 bacteria mL-1 in 10 mL of MHB. For example, (400 events/A)/(10 mL×550000)=7.3 μL, rounded up to the closest 10 μL.
The required volume of bacterial suspension was added from the overnight culture into each 50 ml tube with 9 ml of preheated MHB. Optionally incubate with shaking and protected from light, at 100 RPM at 35° C. for 60 minutes.
MHB (0.1 μm filtered) was used to dilute the antibiotics in this preparation. About one aliquot of antibiotic was removed from the −20° C. freezer and equilibrated to room temperature by ambient heat exchange, and diluted to reach a range of working stock concentrations that were are ten times the desired test concentrations.
Once the 60-minute incubation of bacterial suspension was complete, about 1 mL of 10× antibiotic stocks were added to tubes containing bacterial suspensions to reach final desired test concentrations (1 ml antibiotic and total volume 10 ml). The 50 mL tubes were returned to the incubator and incubated, by shaking at 100 RPM at 35° C., for a further 3 hours.
After 3 hours, about 1 mL suspension was harvested from each tube and transferred to a 1.5 mL clear microcentrifuge tube (marked with the corresponding antibiotic concentration), then centrifuge at 7,800×g for 5 minutes. The supernatant discarded and the pellet resuspended in 1 mL of 0.1 μm filtered HBSS. This wash step was optionally repeated.
Using the computer connected to the Attune, new samples were created ready for the collection of data. That the following parameters were set: Sensitivity: High Sensitivity; Flow Rate: 25 μL/minute; Acquisition Volume: 125 μL; Events Collected: No less than 20,000 from all gates, Time: 1 minute.
About 899 μL HBSS was dispensed into one 1.5 mL amber tube per sample. About 100 μL of suspension per tube was added to achieve a 1 in 10 dilution. About 1 μl of SYTO 9 was added to each tube and the tube vortexed for no more than 2 seconds (over vortexing can lead to bacterial clustering and/or attachment to tube walls).
Samples were placed on the SIP and acquired, in technical triplicate, as per the parameters outlined above. […]

Klebsiella isolates = assay: Acoustic flow cytometry-assisted susceptibility test (FAST), MICFAST and S/NS, Klebsiella isolates; assay type: cell-based, Klebsiella pneumoniae, Klebsiella oxytoca; parameters: MICBMD / MICFAST data point (FIG. 8): unit not given here; settings: 10 of 14 K. pneumoniae isolates
Protocol: A 1 mL aliquot of bacterial suspension was centrifuged, washed and resuspended in 1 mL filtered Hank's Buffered Salt Solution (HBSS; comprising about 0.137 M NaCl, about 5.4 mM KCl, about 0.25 mM Na2HPO4, about 0.1 g Glucose, about 0.44 mM KH2PO4, 1.3 mM CaCl2), 1.0 mM MgSO4, about 1.3 mM CaCl2), 1.0 mM MgSO4, and about 4.2 mM NaHCO3) and diluted in series (e.g., in a 1:10 serial dilution) to a final 1:1000 dilution.
One μL (microliter) of SYTO 9 stain (e.g., ThermoFisher Scientific) working stock solution was added to the final dilution at a final concentration of 5 μM and incubated for 5 minutes before counting bacterial events by acoustic flow cytometer (AFC) (Attune, ThermoFisher, Eugene, Oreg., USA), which was used to prepare a standardised inoculum density for susceptibility testing.
An aliquot of bacterial suspension was added to 50 mL centrifuge tubes (Corning, N.Y.) containing 9 mL of pre-warmed (37° C.) filtered MHB to produce a final density of 5×10^5-1×10^6 bacteria per mL. This suspension was incubated at 37° C. with shaking at 100 RPM for 30 minutes to obtain an actively dividing culture. An aliquot of antibiotic working solution from the previously described dilution series (appropriate to the concentration tested) was then added to each tube before a further 30-minute incubation with shaking, during which time a microbroth dilution (MBD) plate was prepared for overnight incubation at 37° C. as previously described in Clinical and Laboratory Standards Institute (2015) Performance Standards for Antimicrobial Susceptibility Testing: Informational Supplement. CLSI document M100-S25. Clinical and Laboratory Standards Institute, 950, West Valley Road, Suite 2500, Wayne, Pa., 19087, USA.
One millilitre of bacterial suspension from each antibiotic concentration was harvested by centrifugation at 7800×g for 5 minutes, washed and diluted 1:10 in filtered HBSS in a light-impermeable microcentrifuge tube, then stained with SYTO 9 stain at a final concentration of 5 μM, and incubated for 5 min before AFC sampling. Hoechst 33342 dye (NucBlue, Thermo Fisher Scientific, Eugene, Oreg., USA) and a SYTO 9/propidium iodide (PI) combination (Thermo Fisher Scientific) were used in a series of replicate experiments.
The acoustic flow cytometer employed was Attune acoustic flow cytometer (Thermo Fisher Scientific), having installed therein a 488 nm blue laser with a 530/30 nm filter on the photomultiplier tube for measuring fluorescence of cells assayed. Alternatively, the Attune NxT acoustic flow cytometer (Thermo Fisher Scientific) can be employed. AFC was calibrated at the beginning of each acquisition session using fluorescently labelled size calibration beads, in accordance with the manufacturer's instructions (ThermoFisher Scientific). The AFC settings were as follows: Forward Scatter (FSC) voltage 3100, FSC threshold 4×1000 AND, blue laser 1 (BL1—530/30 nm) voltage 1900, BL1 threshold 1×1000 AND, high sensitivity, flow rate 25 μL/minute, and an acquisition volume of 125 μL. Acquisition was halted after either collection of 20,000 events across all gates, or after 3 minutes, with each sample acquired in technical triplicate.
Collected data was exported in the FCS 3.0 file format and analysed in Flow v10.0 (FlowJo LLC, Ashland, Oreg., USA) by a single user, blinded to the MIC results by BMD (MICBMD).
Subsequent to quantitative MICFAST determination, the acoustic flow cytometer data were re-analysed in silico to produce a limited sub-set for qualitative susceptibility determination. The six antibiotic dilutions (0 mg/L, 0.25 mg/L, 1 mg/L, 2 mg/L, 4 mg/L and 16 mg/L) most relevant to qualitative susceptibility assessment were used. In silico analysis was restricted to the first technical triplicate of each recorded sample. Gating strategies remained consistent, with the addition of a gate restricting analysis to only those events recorded in the first 60 seconds of acquisition.

K. pneumoniae = assay: AFC susceptibility-associated signature for ceftriaxone and gentamicin (FIG. 19); assay type: cell-based, Klebsiella pneumoniae
Text: FIG. 19 provides graphical and pictorial representations showing rapid determination of susceptibly of bacteria to antimicrobial using the using the AFC-assisted susceptibility testing method of the invention.
This example sets out to investigate utility of the AFC-assisted susceptibility testing method of the invention as a clinical test and tool which can inform use antimicrobial choice in the early hours of sepsis presentation, e.g., by applying the AFC-assisted susceptibility testing method directly to blood cultures.

[3] = S. aureus isolate ATCC 29213, MSSA
[4] = S. aureus isolate W0096111, MSSA
[5] = S. aureus isolate W0226111, MSSA
[6] = S. aureus isolate W0236111, MSSA
[7] = S. aureus isolate W0296111, MSSA
[8] = S. aureus isolate W0816111, MSSA
[9] = S. aureus isolate W0866111, MRSA
[10] = S. aureus isolate W6496111, MSSA
[11] = S. aureus isolate W9196111, MSSA
[12] = S. aureus isolate W9346111, MRSA
[13] = S. aureus isolate W . . . 6111, MRSA
[14] = S. aureus isolate WACC 98, MRSA

Compound: Cc1onc(-c2ccccc2)c1C(=O)N[C@@H]1C(=O)N2[C@@H]1SC(C)(C)[C@@H]2C(=O)O [Oxacillin, oxacillin]
- MIC (BMD) (Staphylococcus aureus [1]; [3]): 0.25 µg/mL
- MIC (BMD) (Staphylococcus aureus [1]; [4]): 0.25 µg/mL
- MIC (BMD) (Staphylococcus aureus [1]; [5]): 0.25 µg/mL
- MIC (BMD) (Staphylococcus aureus [1]; [6]): 0.25 µg/mL
- MIC (BMD) (Staphylococcus aureus [1]; [7]): 0.25 µg/mL
- MIC (BMD) (Staphylococcus aureus [1]; [8]): 0.25 µg/mL
- MIC (BMD) (Staphylococcus aureus [1]; [9]): 16 µg/mL
- MIC (BMD) (Staphylococcus aureus [1]; [10]): 1 µg/mL
- MIC (BMD) (Staphylococcus aureus [1]; [11]): 0.25 µg/mL
- MIC (BMD) (Staphylococcus aureus [1]; [12]): 32 µg/mL
- MIC (BMD) (Staphylococcus aureus [1]; [13]): 8 µg/mL
- MIC (BMD) (Staphylococcus aureus [1]; [14]): 256 µg/mL
- MIC dilution at which susceptibility-associated signature is observed by AFC (Staphylococcus aureus [2]; S. aureus ATCC 29213): 0.25
- MIC dilution at which susceptibility-associated signature is observed by AFC (Staphylococcus aureus [2]; S. aureus WACC 98): 256
- MIC (FAST) (Staphylococcus aureus [2]; [3]): ≤ 1 µg/mL
- MIC (FAST) (Staphylococcus aureus [2]; [4]): ≤ 1 µg/mL
- MIC (FAST) (Staphylococcus aureus [2]; [5]): ≤ 1 µg/mL
- MIC (FAST) (Staphylococcus aureus [2]; [6]): ≤ 1 µg/mL
- MIC (FAST) (Staphylococcus aureus [2]; [7]): ≤ 1 µg/mL
- MIC (FAST) (Staphylococcus aureus [2]; [8]): ≤ 1 µg/mL
- MIC (FAST) (Staphylococcus aureus [2]; [9]): 16 µg/mL (≈ 39.9 µM)
- MIC (FAST) (Staphylococcus aureus [2]; [10]): 1 µg/mL (≈ 2.49 µM)
- MIC (FAST) (Staphylococcus aureus [2]; [11]): ≤ 1 µg/mL
- MIC (FAST) (Staphylococcus aureus [2]; [12]): 32 µg/mL (≈ 79.7 µM)
- MIC (FAST) (Staphylococcus aureus [2]; [13]): 16 µg/mL (≈ 39.9 µM)
- MIC (FAST) (Staphylococcus aureus [2]; [14]): 256 µg/mL (≈ 638 µM)
- events remaining in Unexposed Cell Morphotype gate (FIG. 14B) (Staphylococcus aureus [2]; clinical methicillin resistant S. aureus WACC 98, at EUCAST breakpoint 8 mg/L): above the 10% threshold for MICFAST
- events remaining in Unexposed Cell Morphotype gate (FIG. 14A) (Staphylococcus aureus [2]; control methicillin susceptible S. aureus ATCC 25912, oxacillin concentration range): remains below the 10% MICFAST threshold

Compound: CO/N=C(\C(=O)N[C@@H]1C(=O)N2C(C(=O)O)=C(CSc3nc(=O)c(=O)[nH]n3C)CS[C@H]12)c1csc(N)n1 [ceftriaxone]
- MICBMD / MICFAST data point (FIG. 8) (Klebsiella isolates): 256
- MIC (K. pneumoniae; Klebsiella pneumoniae, K. pneumoniae susceptible type strain SSCC 43358, read-out: isolate's MIC (FIG. 19A)): 0.25 µg/mL (≈ 0.451 µM)

Compound: gentamicin
- MIC (K. pneumoniae; K. pneumoniae isolate 244606): 1 µg/mL
